Results from patent US6822100B2 (Bristol-Myers Squibb Company, priority 2001, dated 2004).
Where two headings read alike, the source gives them in different places.

Columns and labels:
[1] = molecular target: T1, recombinant human dopamine D2L receptors (Homo sapiens, UniProt P14416); assay: Dopamine Binding Assay; details: HEK-D2L cell membranes, 150 pM [3H]-spiperone, Cheng and Prusoff
T1 construct: expressed in transfected cells; host or cells: HEK-293 (HEK-D2L), membrane homogenates
Protocol: HEK-293 cells that stably express recombinant human dopamine D2L receptors (HEK-D2L cells) were grown at 37° C. in 5% CO2 as a monolayer in medium consisting of EMEM supplemented with 10% fetal bovine serum and G418 sulfate (500 μg/ml). To prepare membranes for radioligand binding experiments, cells were rinsed twice with phosphate-buffered saline (138 mM NaCl, 4.1 mM KCl, 5.1 mM Na2PO4, 1.5 mM KH2PO2 11.1 mM glucose, pH 7.4), and incubated for 5-10 min. at 4° C. in hypotonic lysis buffer consisting of 10 mM Tris (pH 7.4) and 5 mM EDTA. Cells were transferred from plates to polypropylene tubes (16×100 mm), homogenized and centrifuged at 32,000×g for 20 min. Following centrifugation, pellets were resuspended by homogenization in buffer consisting of 50 mM Tris (pH 7.7 at 25° C.) and 1 mM EDTA. Homogenates were stored at −80° C. until needed. On the day of an experiment, homogenates were thawed then centrifuged at 32,000×g for 20 min. Following centrifugation, supernatants were discarded and pellets were resuspended in assay buffer consisting of 50 mM Tris (pH 7.4 at 25° C.), 1 mM EDTA and 6 mM MgCl2. Membrane homogenates (˜5 μg) were incubated with 150 pM [^3H]-spiperone (Amersham Life Science) and increasing concentrations of test compounds for 1.5 hr at 22° C. in a total volume of 400 μl. Reactions were stopped by addition of ice-cold assay buffer and filtration over glass fiber filters (Whatman GFB, pre-soaked in 0.05% polyethylenimine) using a microtitre format Brandel cell harvester. Filters were washed with 3 ml of ice-cold assay buffer. Non-specific binding was defined with 2 μM (+)butaclamol. Ki values were calculated using the method of Cheng and Prusoff (1973). Protein concentrations were determined by the method of Bradford (1976) with BSA as a standard.

[2] = molecular target: T2, human serotonin transporters (Homo sapiens, UniProt P31645); assay: Serotonin Transporter Binding Assay; details: HEK-hSERT cell membranes, 1 nM [3H]-citalopram, Cheng and Prusoff
T2 construct: expressed in transfected cells; host or cells: HEK-293 (HEK-hSERT), membrane homogenates
Protocol: HEK-293 cells that stably express human serotonin transporters (HEK-hSERT cells) were grown at 37° C. in 5% CO2 as a monolayer in medium consisting of EMEM supplemented with 10% fetal bovine serum and G418 sulfate (500 μg/ml). To prepare membranes for radioligand binding experiments, cells were rinsed twice with phosphate-buffered saline (138 mM NaCl, 4.1 mM KCl, 5.1 mM Na2PO4, 1.5 mM […], 11.1 mM glucose, pH 7.4). Cells were transferred from plates to polypropylene tubes (16×100 mm), centrifuged at 1,200×g for 5 min and were frozen at −80° C. until assay. Following centrifugation, pellets were resuspended by homogenization in buffer consisting of 50 mM Tris (pH 7.7 at 25° C.), 120 mM NaCl and 5 mM KCl and then centrifuged at 32,000×g for 10 min. Following centrifugation, supernatants were discarded and pellets were resuspended in buffer consisting of 50 mM Tris (pH 7.4 at 25° C.), 150 mM NaCl and 5 mM KCl. Membrane homogenates (200 μl/plate) were incubated with 1 nM [^3H]-citalopram (specific activity=85 Ci/mmol) and increasing concentrations of test compounds for 1 hr at 25° C. in a total volume of 250 μl. The assay buffer consisted of 50 mM Tris (pH 7.4 at 25° C.), 120 mM NaCl and 5 mM KCl (pH 7.4 with conc. HCl). Plates were incubated for 1 hr at 25° C., then filtered through 0.5% PEI treated Whatman GF/B filters using a Brandel cell harvester. Filters were washed three times with 3 ml of ice-cold tris wash buffer. Non-specific binding was defined with 10 μM fluoxetine. Amount of radioligand bound in the presence and absence of competitor was analyzed by plotting (−)log drug concentration versus the amount of radioligand specifically bound. The midpoint of the displacement curve (IC50, nM), signifies the potency. Ki values were calculated using the method of Cheng and Prusoff (1973).

T1 sequence (P14416 whole entry): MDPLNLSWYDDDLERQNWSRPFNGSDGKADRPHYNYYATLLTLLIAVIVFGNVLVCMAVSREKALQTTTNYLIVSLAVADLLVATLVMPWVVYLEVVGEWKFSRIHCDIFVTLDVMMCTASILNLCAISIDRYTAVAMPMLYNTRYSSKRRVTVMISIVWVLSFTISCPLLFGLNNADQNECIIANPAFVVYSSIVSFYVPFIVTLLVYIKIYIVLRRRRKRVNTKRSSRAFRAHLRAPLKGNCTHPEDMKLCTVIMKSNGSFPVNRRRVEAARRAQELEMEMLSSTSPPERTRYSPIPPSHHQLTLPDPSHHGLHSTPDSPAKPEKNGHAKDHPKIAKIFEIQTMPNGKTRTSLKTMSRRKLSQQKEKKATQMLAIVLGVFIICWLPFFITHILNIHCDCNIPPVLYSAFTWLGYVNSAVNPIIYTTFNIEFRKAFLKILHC
T2 sequence (P31645 whole entry): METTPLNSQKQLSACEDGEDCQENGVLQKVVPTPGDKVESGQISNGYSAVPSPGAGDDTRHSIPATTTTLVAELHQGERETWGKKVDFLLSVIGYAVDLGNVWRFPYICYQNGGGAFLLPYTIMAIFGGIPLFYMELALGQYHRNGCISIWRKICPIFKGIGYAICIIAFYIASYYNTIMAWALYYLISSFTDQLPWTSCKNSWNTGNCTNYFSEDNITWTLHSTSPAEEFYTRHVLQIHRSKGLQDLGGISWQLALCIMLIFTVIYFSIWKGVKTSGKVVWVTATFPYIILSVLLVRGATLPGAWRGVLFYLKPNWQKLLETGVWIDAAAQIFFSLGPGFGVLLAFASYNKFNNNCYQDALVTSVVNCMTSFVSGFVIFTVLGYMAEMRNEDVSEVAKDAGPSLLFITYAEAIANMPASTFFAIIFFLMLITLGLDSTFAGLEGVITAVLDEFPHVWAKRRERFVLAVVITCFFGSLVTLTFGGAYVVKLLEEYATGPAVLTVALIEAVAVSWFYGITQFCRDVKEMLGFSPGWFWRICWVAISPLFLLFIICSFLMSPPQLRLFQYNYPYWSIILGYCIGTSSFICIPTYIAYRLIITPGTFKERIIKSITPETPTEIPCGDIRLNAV

Ki [1] [nM] | Ki ([2]; read-out: SERT Ki) [nM] | Compound | Ki ([2]; SERT Ki (nM)) [nM]
10 to 100 | 10 to 100 | Fc1ccc2[nH]cc(C3CC3CNCc3ccncc3)c2c1 (stereo not drawn) [Example 58, trans-2-[5-Fluoroindol-3-yl]-1-[N-(4-pyridylmethyl)aminomethyl]-cyclopropane] | 
100 to 1000 | 1 to 10 | CCN(CCCNC(=O)OC)C[C@@H]1C[C@H]1c1c[nH]c2ccc(C#N)cc12 (relative stereo) [Example 97, trans-2-[5-Cyanoindol-3-yl]-1-[N,N-ethyl-2-amino(methylcarbamoyl)propylaminomethyl]-cyclopropane] | 
10 to 100 | 10 to 100 | Fc1ccc2[nH]cc(C3CC3CNCCCn3ccnc3)c2c1 (stereo not drawn) [Example 65, trans-2-[5-Fluoroindol-3-yl]-1-[N-3-(1-imidazolyl)propylaminomethyl]-cyclopropane] | 
100 to 1000 | 10 to 100 | CCCOC(=O)NCCCN(C)C[C@@H]1C[C@H]1c1c[nH]c2ccc(F)cc12 (relative stereo) [Example 106, trans-2-[5-Fluoroindol-3-yl]-1-[N,N-methyl-2-amino(propylcarbamoyl)propylaminomethyl]-cyclopropane] | 
100 to 1000 | 1 to 10 | CCCOC(=O)NCCN(CC)C[C@@H]1C[C@H]1c1c[nH]c2ccc(F)cc12 (relative stereo) [Example 110, trans-1-[N,N-Ethyl-2-amino(propylcarbamoyl)ethylaminomethyl]-2-[5-fluoroindol-3-yl]-cyclopropane] | 
1 to 10 | 1 to 10 | N#Cc1ccc2[nH]cc(C3CC3CN3CCC(Cc4ccccc4)CC3)c2c1 (stereo not drawn) [Example 34, trans-1-(4-Benzyl-piperidin-1-ylmethyl)-2-[5-cyanoindol-3-yl]-cyclopropane] | 
10 to 100 | 10 to 100 | Fc1ccc2[nH]cc(C3CC3CNC34C[C@H]5C[C@@H](C3)C[C@@H](C4)C5)c2c1 (stereo partly drawn) [Example 139] | 
100 to 1000 | 10 to 100 | N#Cc1ccc2[nH]cc(C3CC3CNCc3ccccn3)c2c1 (stereo not drawn) [Example 14, trans-2-[5-Cyanoindol-3-yl]-1-[N-(2-pyridylmethyl)aminomethyl]-cyclopropane] | 
10 to 100 | 1 to 10 | N#Cc1ccc2[nH]cc(C3CC3CNCCc3cccs3)c2c1 (stereo not drawn) [Example 26, trans-2-[5-Cyanoindol-3-yl]-1-[N-2-(2-thiopheneyl)ethylaminomethyl]-cyclopropane] | 
10 to 100 | 10 to 100 | Fc1ccc2[nH]cc(C3CC3CNCCCc3cccnc3)c2c1 (stereo not drawn) [Example 63, trans-2-[5-Fluoroindol-3-yl]-1-[N-3-(3-pyridyl)propylaminomethyl]-cyclopropane] | 
100 to 1000 | 10 to 100 | Fc1ccc2[nH]cc([C@@H]3C[C@H]3CNCc3ccccc3)c2c1 (relative stereo) [Example 49, trans-1-(N-Benzlyaminomethyl)-2-[5-fluoroindol-3-yl]-cyclopropane] | 
10 to 100 | 1 to 10 | COc1ccccc1CNCC1CC1c1c[nH]c2ccc(F)cc12 (stereo not drawn) [Example 50, trans-2-[5-Fluoroindol-3-yl]-1-[N-(2-methoxybenzyl)aminomethyl]-cyclopropane] | 
100 to 1000 | 10 to 100 | CCN(CCCNC(=O)OC(C)C)C[C@@H]1C[C@H]1c1c[nH]c2ccc(F)cc12 (relative stereo) [Example 115, trans-1-[N,N-Ethyl-2-amino(isopropylcarbamoyl)propylaminomethyl]-2-[5-fluoroindol-3-yl]-cyclopropane] | 
100 to 1000 | 10 to 100 | CCOC(=O)NCCN(C)C[C@@H]1C[C@H]1c1c[nH]c2ccc(C#N)cc12 (relative stereo) [Example 87, trans-2-[5-Cyanoindol-3-yl]-1-[N,N-methyl-2-amino(ethylcarbamoyl)ethylaminomethyl]-cyclopropane] | 
100 to 1000 | 1 to 10 | N#Cc1ccc2[nH]cc(C3CC3CNCc3cccc(F)c3)c2c1 (stereo not drawn) [Example 12, trans-2-[5-Cyanoindol-3-yl]-1-[N-(3-fluorobenzyl)aminomethyl]-cyclopropane] | 
100 to 1000 | 10 to 100 | CN(CCCC1CC1c1c[nH]c2ccc(C#N)cc12)Cc1ccccc1 (stereo not drawn) [Example 180, Trans-2-[5-cyanoindol-3-yl]-1-(3-(N-benzyl-N-methylamino)propyl)cyclopropane] | 
10 to 100 | 1 to 10 | N#Cc1ccc2[nH]cc([C@@H]3C[C@H]3CNCCc3ccccc3F)c2c1 (relative stereo) [Example 17, trans-2-[5-Cyanoindol-3-yl]-1-[N-2-(2-fluorophenyl)ethylaminomethyl]-cyclopropane] | 

Compound | Ki [1] [nM] | Ki ([2]; read-out: SERT Ki) [nM] | Ki ([2]; SERT Ki (nM)) [nM]
CN(C)C[C@H]1C[C@@H]1c1c[nH]c2ccc(C#N)cc12 [Example 5, (1S,2S)-trans-2-[5-cyanoindol-3-yl]-1-(N,N-dimethylaminomethyl)-cyclopropane] | > 1000 |  | < 1
CN(C)CC1CC1c1c[nH]c2ccc(C#N)cc12 (single isomer, unassigned) [Example 129b, Cis-2-[5-Cyanoindol-3-yl]-1-(N,N-dimethylaminomethyl)cyclopropane] | > 1000 |  | 1 to 10
CCNCC1CC1c1c[nH]c2ccc(C#N)cc12 (stereo not drawn) [Example 135] | 10 to 100 | 1 to 10 | 
CCNCC1CC1c1c[nH]c2ccc(F)cc12 (stereo not drawn) [Example 182, cis-1-(N-ethylaminomethyl)-2-[5-fluoroindol-3-yl]-cyclopropane] | 100 to 1000 | 10 to 100 | 
CN(C)CC1CC1c1c[nH]c2ccc(C#N)cc12 (single isomer, unassigned) [Example 129a, Cis-2-[5-Cyanoindol-3-yl]-1-(N,N-dimethylaminomethyl)cyclopropane] | > 1000 |  | 10 to 100
Fc1ccc2[nH]cc([C@@H]3C[C@@H]3CN3CCCC3)c2c1 (relative stereo) [Example 185, cis-1-(1-pyrrolidino)-2-[5-fluoroindol-3-yl]-cyclopropane] | > 1000 |  | 10 to 100
CC([C@@H]1C[C@H]1c1c[nH]c2ccc(C#N)cc12)N(C)C (single isomer, unassigned) [Example 122A, trans-3-[2-(1-Dimethylamino-ethyl)-cyclopropyl]-1H-indole-5-carbonitrile] | > 1000 |  | < 1
CCN(C)CC1CC1c1c[nH]c2ccc(F)cc12 (stereo not drawn) [Example 184, cis-1-(N-ethyl-N-methylaminomethyl)-2-[5-fluoroindol-3-yl]-cyclopropane] | > 1000 |  | 10 to 100
CC(C)CCNCC1CC1c1c[nH]c2ccc(F)cc12 (stereo not drawn) [Example 72, trans-2-[5-Fluoroindol-3-yl]-1-[N-3-methyl-butylaminomethyl]-cyclopropane] | 100 to 1000 | 10 to 100 | 
CCNCCCC1CC1c1c[nH]c2ccc(C#N)cc12 (stereo not drawn) [Example 176, Trans-2-[5-cyanoindol-3-yl]-1-(3-(N-ethylamino)propyl)cyclopropane] | 100 to 1000 | 10 to 100 | 
CCN(CC)CC1CC1c1c[nH]c2ccc(F)cc12 (stereo not drawn) [Example 183] | > 1000 |  | 10 to 100
CCN(CC)CC1CC1c1n[nH]c2ccc(C#N)cc12 (stereo not drawn) [Example 165, 3-(2-Diethylaminomethyl-cyclopropyl)-1H-indazole-5-carbonitrile] |  | 100 to 1000 | 
